Laboratory results taken from US8574563B2 (Bristol-Myers Squibb Company, priority 2006, dated 2013).

These molecules were tested on HCV 1b-377-neo replicon cells (assay: HCV replicon assay, HCV 1b-377-neo replicon cells (1b FRET)). Conditions: HCV 1b-377-neo replicon cells; HCV 1b genotype.
Assay type: cell-based, Hepatitis C virus genotype 1b
Method in brief: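 Compounds tested in HCV genotype 1b-377-neo replicon cells with a FRET read-out. Cells resistant to a reference NS5A inhibitor through a Y2065H NS5A mutation were run alongside wild-type cells.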

`COC(=O)N[C@@H](C(=O)N1CCC[C@@H]1c1ncc(-c2ccc(-c3ccc(-c4cnc([C@H]5CCCN5C(=O)[C@H](NC(=O)OC)C5CC5)[nH]4)cc3)cc2)[nH]1)C1CC1` [Example M29] was tested, and the “EC50 range against HCV 1b (Table 2, Range)” value was “>A”.

Same assay, conditions: HCV 1b-377-neo replicon cells; HCV 1b genotype; read-out: EC50 range against HCV 1b (Table 2, Range)

`COC(=O)N[C@@H](C(=O)N1CCC[C@H]1c1ncc(-c2ccc(-c3ccc(-c4cnc([C@@H]5CCCN5C(=O)c5ccncc5)[nH]4)cc3)cc2)[nH]1)c1ccccc1` [Example 69, methyl ((1R)-2-((2S)-2-(5-(4′-(2-((2S)-1-isonicotinoyl-2-pyrrolidinyl)-1H-imidazol-5-yl)-4-biphenylyl)-1H-imidaozl-2-yl)-1-pyrrolidinyl)-2-oxo-1-phenylethyl)carbamate] and `COC(=O)NC(C(=O)N1CCCC1c1nc(-c2ccc(-c3ccc(-c4cnc(C5CCCN5C(=O)CN5CCCC5)[nH]4)cc3)cc2)c[nH]1)c1ccccc1` [Example 58, methyl ((1R)-2-oxo-1-phenyl-2-((2S)-2-(5-(4′-(2-((2S)-1-(1-pyrrolidinylacetyl)-2-pyrrolidinyl)-1H-imidazol-5-yl)-4-biphenylyl)-1H-imidazol-2-yl)-1-pyrrolidinyl)ethyl)carbamate] fall in the same range of EC50: 0.001 to 0.999 nM for the first, 0.001 to 0.999 nM for the second.

In the case of `O=C(Cc1ccccc1)N1CCC[C@H]1c1ncc(-c2ccc(-c3ccc(-c4cnc([C@@H]5CCCN5C(=O)Cc5ccccc5)[nH]4)cc3)cc2)[nH]1` [Example 7, 5,5′-(4,4′-biphenyldiyl)bis(2-((2)S-1-(phenylacetyl)-2-pyrrolidinyl)-1H-imidazole)], the EC50 is reported as 0.001 to 0.999 nM.

Same assay, conditions: Hepatitis C virus, HCV 1b-377-neo replicon cells; HCV 1b genotype; read-out: EC50 range against HCV 1b (Table 2, Range)

`COC(=O)N[C@@H](Cc1ccc(OP(=O)(O)OC)cc1)C(=O)N1CCC[C@H]1c1ncc(-c2ccc(-c3ccc(-c4cnc([C@@H]5CCCN5C(=O)[C@@H](NC(=O)OC)C(C)C)[nH]4)cc3)cc2)[nH]1` [cj-91, methyl ((1S)-1-(((2S)-2-(5-(4′-(2-((2S)-1-(O-(hydroxy(methoxy)phosphoryl)-N-(methoxycarbonyl)-L-tyrosyl)-2-pyrrolidinyl)-1H-imidazol-5-yl)-4-biphenylyl)-1H-imidazol-2-yl)-1-pyrrolidinyl)carbonyl)-2-methylpropyl)carbamate] and `COC(=O)N[C@@H](Cn1cccn1)C(=O)N1CCC[C@H]1c1ncc(-c2ccc(-c3ccc(-c4cnc([C@@H]5CCCN5C(=O)[C@@H](NC(=O)OC)C(C)C)[nH]4)cc3)cc2)[nH]1` [cj-38, methyl ((1S)-1-(((2S)-2-(5-(4′-(2-((2S)-1-((2S)-2-((methoxycarbonyl)amino)-3-(1H-pyrazol-1-yl)propanoyl)-2-pyrrolidinyl)-1H-imidazol-5-yl)-4-biphenylyl)-1H-imidazol-2-yl)-1-pyrrolidinyl)carbonyl)-2-methylpropyl)carbamate] fall in the same range of EC50: 0.001 to 0.999 nM for the first, 0.001 to 0.999 nM for the second.

First: O=C1N[C@H](C(=O)N2CCC[C@H]2c2ncc(-c3ccc(-c4ccc(-c5cnc([C@@H]6CCCN6C(=O)[C@@H]6CCOC(=O)N6)[nH]5)cc4)cc3)[nH]2)CCO1 [LS11, (4S,4′S)-4,4′-(4,4′-biphenyldiylbis(1H-imidazole-5,2-diyl(2S)-2,1-pyrrolidinediylcarbonyl))bis(1,3-oxazinan-2-one)]
Second: COC(=O)N[C@H]1CC[C@H](C(=O)N2CCC[C@H]2c2ncc(-c3ccc(-c4ccc(-c5cnc([C@@H]6CCCN6C(=O)[C@H]6CC[C@H](NC(=O)OC)CC6)[nH]5)cc4)cc3)[nH]2)CC1 [cj-151, dimethyl (4,4′-biphenyldiylbis(1H-imidazole-5,2-diyl(2S)-2,1-pyrrolidinediylcarbonyltrans-4,1-cyclohexanediyl))biscarbamate]
The EC50 of the first is higher: 1000 to 10000 nM for the first, 1 to 99 nM for the second.

`COC(=O)N[C@@H](C(=O)N1CCC[C@H]1c1ncc(-c2ccc(-c3ccc(-c4cnc([C@@H]5CCCN5C(=O)C(c5cccc6ccccc56)N(C)C)[nH]4)cc3)cc2)[nH]1)c1ccccc1` (stereo partly drawn) [Example 84-51, methyl ((1R)-2-((2S)-2-(5-(4′-(2-((2S)-1-((dimethylamino)(1-naphthyl)acetyl)-2-pyrrolidinyl)-1H-imidazol-5-yl)-4-biphenylyl)-1H-imidazol-2-yl)-1-pyrrolidinyl)-2-oxo-1-phenylethyl)carbamate] and `CN(C)[C@@H](C(=O)N1CCC[C@H]1c1ncc(-c2ccc(-c3ccc(-c4cnc([C@@H]5CCCN5C(=O)Cc5c[nH]c6ccccc56)[nH]4)cc3)cc2)[nH]1)c1ccccc1` [Example 94-56, (1R)-2-((2S)-2-(5-(4′-(2-((2S)-1-(1H-indol-3-ylacetyl)-2-pyrrolidinyl)-1H-imidazol-5-yl)-4-biphenylyl)-1H-imidazol-2-yl)-1-pyrrolidinyl)-N,N-dimethyl-2-oxo-1-phenylethanamine] fall in the same range of EC50: 0.001 to 0.999 nM for the first, 0.001 to 0.999 nM for the second.

Compared with `CCN(CC)[C@@H](C(=O)N1CCC[C@H]1c1ncc(-c2ccc(-c3ccc(-c4cnc([C@@H]5CCCN5C(=O)[C@@H]5CCC[C@H]5NC(=O)OC)[nH]4)cc3)cc2)[nH]1)c1ccccc1` [cj-109, methyl ((1R,2R)-2-(((2S)-2-(5-(4′-(2-((2S)-1-((2R)-2-(diethylamino)-2-phenylacetyl)-2-pyrrolidinyl)-1H-imidazol-5-yl)-4-biphenylyl)-1H-imidazol-2-yl)-1-pyrrolidinyl)carbonyl)cyclopentyl)carbamate], `COC(=O)N[C@@H](C(=O)N1CCC[C@H]1c1ncc(-c2ccc(-c3ccc(-c4cnc([C@@H]5CCCN5C(=O)CN)[nH]4)cc3)cc2)[nH]1)c1ccccc1` [Example 30, methyl ((1R)-2-((2S)-2-(5-(4′-(2-((2S)-1-glycyl-2-pyrrolidinyl)-1H-imidazol-5-yl)-4-biphenylyl)-1H-imidazol-2-yl)-1-pyrrolidinyl)-2-oxo-1-phenylethyl)carbamate] is higher in EC50: 0.001 to 0.999 nM for the first, 1 to 99 nM for the second.

`CO[C@H](C(=O)N1CCC[C@H]1c1ncc(-c2ccc(-c3ccc(-c4cnc([C@@H]5CCCN5C(=O)[C@@H](c5ccccc5)N5CCCCC5)[nH]4)cc3)cc2)[nH]1)c1ccccc1` [Example 107-20, 1-((1R)-2-((2S)-2-(5-(4′-(2-((2S)-1-((2S)-2-methoxy-2-phenylacetyl)-2-pyrrolidinyl)-1H-imidazol-5-yl)-4-biphenylyl)-1H-imidazol-2-yl)-1-pyrrolidinyl)-2-oxo-1-phenylethyl) piperidine] and `CC(=O)N[C@@H](C(=O)N1CCC[C@H]1c1ncc(-c2ccc(-c3ccc(-c4cnc([C@@H]5CCCN5C(=O)[C@H](NC(C)=O)c5ccccc5)[nH]4)cc3)cc2)[nH]1)c1ccccc1` [Example 25, N,N′-(4,4′-biphenyldiylbis(1H-imidazole-5,2-diyl(2S)-2,1-pyrrolidinediyl((1R)-2-oxo-1-phenyl-2,1-ethanediyl)))diacetamide] fall in the same range of EC50: 0.001 to 0.999 nM for the first, 0.001 to 0.999 nM for the second.

`O=C(C(c1ccccc1)N1CCC(c2ccccc2)CC1)N1CCC[C@H]1c1ncc(-c2ccc(-c3ccc(-c4c[nH]c([C@@H]5CCCN5C(=O)[C@H]5CCCO5)n4)cc3)cc2)[nH]1` (stereo partly drawn) [Example 103-1, 1-(2-oxo-1-phenyl-2-((2S)-2-(5-(4′-(2-((2S)-1-((2R)-tetrahydro-2-furanylcarbonyl)-2-pyrrolidinyl)-1H-imidazol-4-yl)-4-biphenylyl)-1H-imidazol-2-yl)-1-pyrrolidinyl)ethyl)-4-phenylpiperidine] and `CN1CCN(C(C(=O)N2CCC[C@H]2c2ncc(-c3ccc(-c4ccc(-c5c[nH]c([C@@H]6CCCN6C(=O)[C@H]6CCCO6)n5)cc4)cc3)[nH]2)c2ccccc2)CC1` (stereo partly drawn) [Example 103-3, 1-methyl-4-(2-oxo-1-phenyl-2-((2S)-2-(5-(4′-(2-((2S)-1-((2R)-tetrahydro-2-furanylcarbonyl)-2-pyrrolidinyl)-1H-imidazol-4-yl)-4-biphenylyl)-1H-imidazol-2-yl)-1-pyrrolidinyl)ethyl)piperazine] fall in the same range of EC50: 0.001 to 0.999 nM for the first, 0.001 to 0.999 nM for the second.

First: CC(C)[C@H](O)C(=O)N[C@@H](C)C(=O)N1CCC[C@H]1c1nc(-c2ccc(-c3ccc(-c4cnc([C@@H]5CCCN5C(=O)[C@H](C)NC(=O)[C@@H](O)C(C)C)[nH]4)cc3)cc2)c[nH]1 [Example F22, (2S)-2-hydroxy-N-((1S)-2-((2S)-2-(5-(4′-(2-((2S)-1-(N-((2S)-2-hydroxy-3-methylbutanoyl)-L-alanyl)-2-pyrrolidinyl)-1H-imidazol-4-yl)-4-biphenylyl)-1H-imidazol-2-yl)-1-pyrrolidinyl)-1-methyl-2-oxoethyl)-3-methylbutanamide]
Second: CCN[C@@H](C(=O)N1CCC[C@H]1c1ncc(-c2ccc(-c3ccc(-c4c[nH]c([C@@H]5CCCN5C(=O)[C@H](C)NC(=O)OC)n4)cc3)cc2)[nH]1)c1ccccc1 [Example F41, methyl ((1S)-2-((2S)-2-(4-(4′-(2-((2S)-1-((2R)-2-(ethylamino)-2-phenylacetyl)-2-pyrrolidinyl)-1H-imidazol-5-yl)-4-biphenylyl)-1H-imidazol-2-yl)-1-pyrrolidinyl)-1-methyl-2-oxoethyl)carbamate]
The EC50 of the first is higher: 100 to 999 nM for the first, 0.001 to 0.999 nM for the second.

First: COCC[C@H](NC(=O)OC)C(=O)N1CCC[C@H]1c1ncc(-c2ccc(-c3ccc(-c4cnc([C@@H]5CCCN5C(=O)[C@@H](NC(=O)OC)[C@@H](C)OC)[nH]4)cc3)cc2)[nH]1 [cj-121, methyl ((1S,2R)-2-methoxy-1-(((2S)-2-(5-(4′-(2-((2S)-1-(N-(methoxycarbonyl)-O-methyl-L-homoseryl)-2-pyrrolidinyl)-1H-imidazol-5-yl)-4-biphenylyl)-1H-imidazol-2-yl)-1-pyrrolidinyl)carbonyl)propyl)carbamate]
Second: CCNC(=O)N[C@@H](C(=O)N1C[C@H](O)C[C@H]1c1ncc(-c2ccc(-c3ccc(-c4cnc([C@@H]5C[C@@H](O)CN5C(=O)[C@H](NC(=O)NCC)c5ccccc5)[nH]4)cc3)cc2)[nH]1)c1ccccc1 [Example 24-14, N′,N′′′-(4,4′-biphenyldiylbis(1H-imidazole-5,2-diyl((2S,4R)-4-hydroxy-2,1-pyrrolidinediyl)((1R)-2-oxo-1-phenyl-2,1-ethanediyl)))bis(1-ethylurea)]
The EC50 of the first is lower: 0.001 to 0.999 nM for the first, 1 to 99 nM for the second.

Work on `CCN(CC)[C@@H](C(=O)N1C[C@H](F)C[C@H]1c1ncc(-c2ccc(-c3ccc(-c4cnc([C@@H]5C[C@@H](F)CN5C(=O)[C@@H](c5ccccc5)N(CC)CC)[nH]4)cc3)cc2)[nH]1)c1ccccc1` [JG-17, (1R,1′R)-2,2′-(4,4′-biphenyldiylbis(1H-imidazole-5,2-diyl((2S,4R)-4-fluoro-2,1-pyrrolidinediyl)))bis(N,N-diethyl-2-oxo-1-phenylethanamine)] yielded an EC50 of 0.001 to 0.999 nM.
